According to ChEMBL document CHEMBL1132781, “Structure-based design and synthesis of phosphinate isosteres of phosphotyrosine for incorporation in Grb2-SH2 domain inhibitors. Part 1” (Bioorg Med Chem Lett, 2000):

Each molecule was assayed against Growth factor receptor-bound protein 2 (Homo sapiens, UniProt P62993) (assay: Inhibition of Grb2-SH2 domain binding to phospho-EGF receptor intracellular C-terminal domain).
Assay type: cell-based

Growth factor receptor-bound protein 2, sequence (P62993 whole entry, the tested form may be a part): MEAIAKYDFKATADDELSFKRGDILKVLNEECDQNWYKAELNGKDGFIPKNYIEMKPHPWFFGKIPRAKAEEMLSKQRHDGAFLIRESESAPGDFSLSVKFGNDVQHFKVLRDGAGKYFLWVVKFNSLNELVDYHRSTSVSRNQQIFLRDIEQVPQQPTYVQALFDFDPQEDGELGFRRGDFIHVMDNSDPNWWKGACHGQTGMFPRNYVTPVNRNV

Structure (SMILES)	IC50
CC(=O)N[C@@H](Cc1ccc(CP(=O)(O)C(O)c2ccccc2)cc1)C(=O)NC1(C(=O)N[C@@H]2CCCC[C@@H]2C(N)=O)CCCCC1 (stereo partly specified)	0.53 µM
CC(=O)N[C@@H](Cc1ccc(CP(C)(=O)O)cc1)C(=O)NC1(C(=O)N[C@@H]2CCCC[C@@H]2C(N)=O)CCCCC1	25.5 µM
CC(=O)N[C@@H](Cc1ccc(CP(=O)(O)CCO)cc1)C(=O)NC1(C(=O)N[C@@H]2CCCC[C@@H]2C(N)=O)CCCCC1	1.6 µM
CC(=O)N[C@@H](Cc1ccc(CP(=O)(O)CO)cc1)C(=O)NC1(C(=O)N[C@@H]2CCCC[C@@H]2C(N)=O)CCCCC1	7.6 µM
CC(=O)N[C@@H](Cc1ccc(CP(=O)(O)Cc2ccccc2)cc1)C(=O)NC1(C(=O)N[C@@H]2CCCC[C@@H]2C(N)=O)CCCCC1	1.2 µM
CC(=O)N[C@@H](Cc1ccc(CP(=O)(O)O)cc1)C(=O)NC1(C(=O)N[C@@H]2CCCC[C@@H]2C(N)=O)CCCCC1	0.7 µM
